Data as given in ChEMBL document CHEMBL1201862, “PubChem BioAssay data set” (2004).
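Growth conditions: 96-well plates. Treatment: test compound, 48 hours, 5 concentrations. Analysis: linear interpolation between bracketing concentrations; unreached endpoints set to highest concentration. GI50 marks 50% less growth.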 Calls of active or inactive are those of the source. No stated cut-off is given here; in the data, active = GI50 up to about 1.1 µM and inactive = higher. Peptide text beside a SMILES is read from it. * marks the point of attachment. Cbz = O=C(OCc1ccccc1)*; CH2Cl = ClC*

Assays:
Experiment in all cases: NCI tumour cell line growth inhibition, 48 h
BT-549 = system: BT-549
MOLT-4 = system: MOLT-4
K562 = system: K562
UACC-257 = system: UACC-257
UO-31 = system: UO-31
MDA-MB-231 = system: MDA-MB-231
SK-OV-3 = system: SK-OV-3
SF-268 = system: SF-268
CAKI-1 = system: CAKI-1
A549 = system: A549
SF-539 = system: SF-539
SR = system: SR
COLO 205 = system: COLO 205
786-0 = system: 786-0
SN12C = system: SN12C
SK-MEL-28 = system: SK-MEL-28
LOX IMVI = system: LOX IMVI
DU-145 = system: DU-145
DMS-273 = system: DMS-273

Row | Compound | GI50 (BT-549) | GI50 (MOLT-4) | GI50 (K562) | GI50 (UACC-257) | GI50 (UO-31) | GI50 (MDA-MB-231) | GI50 (SK-OV-3) | GI50 (SF-268) | GI50 (CAKI-1) | GI50 (A549) | GI50 (SF-539) | GI50 (SR) | GI50 (COLO 205) | GI50 (786-0) | GI50 (SN12C) | GI50 (SK-MEL-28) | GI50 (LOX IMVI) | GI50 (DU-145) | GI50 (DMS-273)
1 | CC(C)CC(NC(=O)OCc1ccccc1)C(=O)NC(Cc1ccccc1)C(=O)CCl (stereo not drawn) (Cbz-Leu-Phe-CH2Cl; configuration not given here) | 2.47 µM (inactive) | 0.664 µM (active) | 0.7 µM (active) | 4 µM (inactive) | 6.46 µM (inactive) | 1.69 µM (inactive) | 11.4 µM (inactive) | 4.86 µM (inactive) | 5.14 µM (inactive) | 15.9 µM (inactive) | 3.32 µM (inactive) | 0.501 µM (active) | 2.93 µM (inactive) | 1.66 µM (inactive) | 1.77 µM (inactive) | 1.85 µM (inactive) | 0.719 µM (active) | > 100 µM (inactive) | 
2 | OC(c1nc2ccccc2[nH]1)C(O)C(O)C(O)c1nc2ccccc2[nH]1 (stereo unspecified) | > 100 µM (inactive) | > 100 µM (inactive) | > 100 µM (inactive) | > 100 µM (inactive) | > 100 µM (inactive) | > 100 µM (inactive) | > 100 µM (inactive) | > 100 µM (inactive) | > 100 µM (inactive) | > 100 µM (inactive) | > 100 µM (inactive) | > 100 µM (inactive) | > 100 µM (inactive) | > 100 µM (inactive) | > 100 µM (inactive) | > 100 µM (inactive) | > 100 µM (inactive) | > 100 µM (inactive) | 
3 | O=C1C(Cl)=C(N2C(=O)CCC2=O)C(=O)c2ccccc21 | 20.5 µM (inactive) | 50.7 µM (inactive) | 2.83 µM (inactive) | 25.2 µM (inactive) | 15 µM (inactive) | 27.5 µM (inactive) | > 100 µM (inactive) | 40.1 µM (inactive) | 19.1 µM (inactive) | 31.8 µM (inactive) | 39.8 µM (inactive) | 32 µM (inactive) | 15.2 µM (inactive) | 18.7 µM (inactive) | 17.9 µM (inactive) | 20.4 µM (inactive) | 27.3 µM (inactive) | 32.7 µM (inactive) | 
4 | Fc1cc(-c2cc(-c3ccccc3)n[nH]2)c(Cl)cc1Cl | > 100 µM (inactive) | 16.9 µM (inactive) | 0.492 µM (active) | > 100 µM (inactive) | > 100 µM (inactive) | 55.5 µM (inactive) | > 100 µM (inactive) | > 100 µM (inactive) | > 100 µM (inactive) | > 100 µM (inactive) | 23 µM (inactive) | > 100 µM (inactive) | > 100 µM (inactive) | > 100 µM (inactive) | > 100 µM (inactive) | > 100 µM (inactive) | 99.1 µM (inactive) | > 100 µM (inactive) | 
5 | O=c1[nH]c2c(c3ccccc13)CCc1ccccc1-2 |  | > 100 µM (inactive) | > 100 µM (inactive) | > 100 µM (inactive) | > 100 µM (inactive) |  | > 100 µM (inactive) | > 100 µM (inactive) | > 100 µM (inactive) | > 100 µM (inactive) | > 100 µM (inactive) | > 100 µM (inactive) | > 100 µM (inactive) | > 100 µM (inactive) | > 100 µM (inactive) | > 100 µM (inactive) |  |  | > 100 µM (inactive)
6 | Cc1ccc(C)c(COCCOCn2ccc(N)nc2=O)c1 | > 100 µM (inactive) | > 100 µM (inactive) | > 100 µM (inactive) | > 100 µM (inactive) | > 100 µM (inactive) | > 100 µM (inactive) | > 100 µM (inactive) | > 100 µM (inactive) | > 100 µM (inactive) | > 100 µM (inactive) | > 100 µM (inactive) | > 100 µM (inactive) | > 100 µM (inactive) | > 100 µM (inactive) | > 100 µM (inactive) | > 100 µM (inactive) | > 100 µM (inactive) | > 100 µM (inactive) | 
7 | CC(C1CCCC1=O)C1CCCC1=O (stereo unspecified) | > 100 µM (inactive) | > 100 µM (inactive) | > 100 µM (inactive) | > 100 µM (inactive) | > 100 µM (inactive) | > 100 µM (inactive) | > 100 µM (inactive) | > 100 µM (inactive) | > 100 µM (inactive) | > 100 µM (inactive) | > 100 µM (inactive) | > 100 µM (inactive) | > 100 µM (inactive) | > 100 µM (inactive) | > 100 µM (inactive) | > 100 µM (inactive) | > 100 µM (inactive) | > 100 µM (inactive) | 
8 | C=C(C)C1CC(=O)C(C)=C(O)C1 (stereo unspecified) | > 100 µM (inactive) | > 100 µM (inactive) | > 100 µM (inactive) | > 100 µM (inactive) | > 100 µM (inactive) | > 100 µM (inactive) | > 100 µM (inactive) | > 100 µM (inactive) | > 100 µM (inactive) | > 100 µM (inactive) | > 100 µM (inactive) | > 100 µM (inactive) | > 100 µM (inactive) | > 100 µM (inactive) | > 100 µM (inactive) | > 100 µM (inactive) | > 100 µM (inactive) | > 100 µM (inactive) | 
